This passage reports IC50 and MIC results from patent US10722520B2, “Heterocyclic compounds and their use in preventing or treating bacterial infections” (MUTABILIS, priority 2016, dated 2020).

Counter-ions that a name gives are not always drawn. Like-named read-outs stand apart in the source and are kept apart here. Some results are limits rather than exact numbers.

A word on the IC50: it is the concentration that inhibits the measured activity by half. The term MIC denotes the smallest concentration in the dilution series that meets the test's criterion for growth inhibition.

In test [1] the target is OXA-15 (Pseudomonas aeruginosa, UniProt Q51574). The test is described as follows: biochemical.
Test [2] addresses KPC-2 (Klebsiella pneumoniae, UniProt Q9F663).
The target of test [3] is TEM-1 (Escherichia coli, UniProt P62593).
For test [4], the target named is OXA-48 (Klebsiella pneumoniae, UniProt Q6XEC0).
The target of test [5] is OXA-1 (Escherichia coli, UniProt P13661).
For test [6], the system named is E. coli 190317. The test is described as follows: MIC of compound alone, broth microdilution. In kind it is cell-based. To be noted: Escherichia coli; strain 190317; compound alone; read-out: MIC compounds of the invention alone. On the procedure:
(§1) Log phase bacterial suspensions were adjusted to a final density of 5×10^5 cfu/mL in cation-adjusted Mueller-Hinton broth (Becton-Dickinson) and added to each well (98 μL). Microplates were incubated for 16-20 h at 35° C. in ambient air. The MIC of the compounds was defined as the lowest concentration of said compounds that prevented bacterial growth as read by visual inspection.

In test [7] the test system is P. aeruginosa CIP107051. The test is described as follows: MIC of compound alone, broth microdilution. The test is classed as cell-based. To be noted: Pseudomonas aeruginosa; strain CIP107051; compound alone; read-out: MIC compounds of the invention alone. On the procedure: as §1
(In general: Broth dilution looks for growth in wells or tubes with falling amounts of substance.)

Test [8] has as its system K. pneumoniae 6299. Kind of test: MIC of compound alone, broth microdilution. In kind it is cell-based. Particulars: Klebsiella pneumoniae; strain 6299; compound alone; read-out: MIC compounds of the invention alone. As to the method: as §1
Test [9] deals with E. cloacae P99. Kind of test: MIC of compound alone, broth microdilution. The test is classed as cell-based. To be noted: Enterobacter cloacae; strain P99; compound alone; read-out: MIC compounds of the invention alone. On the procedure: as §1
Test [10] concerns K. pneumoniae BAA-1898. The test is described as follows: MIC of compound alone, broth microdilution. In kind it is cell-based. Particulars: Klebsiella pneumoniae, BAA1898; strain BAA-1898; compound alone; read-out: MIC compounds of the invention alone. As to the method:
as §1

The target of test [11] is AmpC (PAE) (Pseudomonas aeruginosa, UniProt P24735). Kind of test: biochemical.
Test [12] addresses CTX-M-15 (Escherichia coli, UniProt Q9EXV5).
The target in test [13] is OXA-11 (Pseudomonas aeruginosa, UniProt Q06778).
For test [14], the target named is AmpC (P99) (Enterobacter cloacae, UniProt P05364). Kind of test: biochemical.
Test [15] has as its target CMY-37 (Citrobacter freundii, UniProt P05193). Particulars: read-out: IC50 β-lactamase CMY-37.
In test [16] the target is SHV-1 (Klebsiella pneumoniae, UniProt P0AD64).
The mark [17] stands for this setting: class (C), nitrocefin 200 μM, 30-min pre-incubation, enzyme 0.2 nM.

With `CC(=O)c1ccn(C2=CC3CN(C2)C(=O)N3OS(=O)(=O)[O-])n1.[Na+]` (stereo not drawn) [Example 28, sodium (7-oxo-3-(3-acetylpyrazol-1-yl)-1,6-diazabicyclo[3.2.1]oct-3-en-6-yl) sulfate], the half-maximal inhibitory concentration (IC50) in test [1] turned out to be 30 nM; in [2] it was 4.8 nM; in test [3], 0.37 nM; in test [4], 3.8 nM; in test [5], 64 nM; in test [11], 200 nM. The IC50 in test [12] turned out to be 0.5 nM; in test [13], 29 nM; in test [14], 10 nM; in test [15], 37 nM; in test [16], 2.2 nM. In addition, the MIC was 16 µg/mL in test [6]; above 32 µg/mL in [7]; above 32 µg/mL in [8]; above 32 µg/mL in test [9]; above 32 µg/mL in [10].

On to `O=C(NC1CCNCC1)c1ccn(C2=CC3CN(C2)C(=O)N3OS(=O)(=O)O)n1` (stereo not drawn) [Example 32, (7-oxo-3-[3-(4-piperidylcarbamoyl)pyrazol-1-yl]-1,6-diazabicyclo[3.2.1]oct-3-en-6-yl) hydrogen sulfate], for which the IC50 in test [1] stood at 39 nM; in test [2], 6.9 nM; in [3], 1.1 nM; in [4] it was 1.5 nM; in [5], 79 nM; in [11], 210 nM. The IC50 in test [12] was determined as 1 nM; in test [13], 27 nM; in test [14] it was 29 nM; in [15] (setting [17]), 59 nM; in test [16] it was 8.2 nM. Further, the MIC in [6] is 8 µg/mL; in test [7] it was above 32 µg/mL; in test [8], 32 µg/mL; in test [9] it was 16 µg/mL; in test [10], 16 µg/mL.

Regarding `O=C(Nc1ccn(C2=CC3CN(C2)C(=O)N3OS(=O)(=O)[O-])n1)c1nccs1.[Na+]` (stereo not drawn) [Example 34, sodium {7-oxo-3-[3-(thiazole-2-carbonylamino)pyrazol-1-yl]-1,6-diazabicyclo[3.2.1]oct-3-en-6-yl}sulfate], the IC50 in test [1] worked out at 34 nM; in [2], 8.5 nM; in test [3], 1 nM; in [4], 9.4 nM; in [5] it was 130 nM; in test [11] it was 56 nM. Further, the IC50 was determined as 0.92 nM in test [12]; 13 nM in test [13]; 10 nM in [14]; 6.2 nM in test [15]; 3.1 nM in [16]. Further, the MIC in [6], in test [7], in test [8], in [9] and in test [10] was above 32 µg/mL each time.

Turning to `O=C(Nc1ncco1)c1ccn(C2=CC3CN(C2)C(=O)N3OS(=O)(=O)[O-])n1.[Na+]` (stereo not drawn) [Example 37, sodium [7-oxo-3-[3-(oxazol-2-ylcarbamoyl)pyrazol-1-yl]-1,6-diazabicyclo[3.2.1]oct-3-en-6-yl]sulfate], the IC50 is 32 nM in test [1]; 2.9 nM in test [2]; 0.5 nM in test [3]; 2.5 nM in [4]; 73 nM in [5]; 200 nM in test [11]. The IC50 in [12] was determined as 0.46 nM; in test [13] it was 21 nM; in test [14] it was 9.7 nM; in test [15], 15 nM; in test [16], 3.2 nM. Moreover, the MIC in test [6] was 8 µg/mL; in [7] it was above 32 µg/mL; in test [8], above 32 µg/mL; in test [9], above 32 µg/mL; in test [10], above 32 µg/mL.

Regarding `NCCNC(=O)c1cnn(C2=CC3CN(C2)C(=O)N3OS(=O)(=O)O)c1` (stereo not drawn) [Example 38, [3-[4-(2-aminoethylcarbamoyl)pyrazol-1-yl]-7-oxo-1,6-diazabicyclo[3.2.1]oct-3-en-6-yl]hydrogen sulfate], the IC50 in test [1] amounted to 17 nM; in test [2], 7.5 nM; in test [3], 0.43 nM; in [4] it was 3.2 nM; in test [5], 180 nM; in test [11], 210 nM. Moreover, the half-maximal inhibitory concentration (IC50) was 0.7 nM in test [12]; 50 nM in test [13]; 34 nM in [14]; 38 nM in test [15] (setting [17]); 2.5 nM in test [16]. In addition, the MIC was 4 µg/mL in test [6]; 32 µg/mL in [7]; above 32 µg/mL in [8]; 16 µg/mL in [9]; above 32 µg/mL in [10].

In the case of `CC(=O)c1cnn(C2=CC3CN(C2)C(=O)N3OS(=O)(=O)[O-])c1.[Na+]` (stereo not drawn) [Example 40, sodium [3-(4-acetylpyrazol-1-yl)-7-oxo-1,6-diazabicyclo[3.2.1]oct-3-en-6-yl]sulfate], the IC50 came out at 8.6 nM in [1]; 3.4 nM in test [2]; 0.35 nM in test [3]; 6.3 nM in test [4]; 150 nM in test [5]; 260 nM in [11]. Moreover, the IC50 came out at 0.91 nM in [12]; 95 nM in test [13]; 7.5 nM in test [14]; 8.3 nM in [15]; 1.8 nM in test [16]. The MIC in test [6] was 32 µg/mL; in test [7], above 32 µg/mL; in [8], above 32 µg/mL; in [9], above 32 µg/mL; in test [10], above 32 µg/mL.

For `NCCc1cnn(C2=CC3CN(C2)C(=O)N3OS(=O)(=O)O)c1` (stereo not drawn) [Example 41, [3-[4-(2-aminoethyl)pyrazol-1-yl]-7-oxo-1,6-diazabicyclo[3.2.1]oct-3-en-6-yl]hydrogen sulfate], the IC50 stood at 40 nM in test [1]; 57 nM in test [2]; 0.58 nM in test [3]; 8.9 nM in test [4]; 750 nM in test [5]; 88 nM in [11]. The IC50 was found to be 0.91 nM in [12]; 180 nM in test [13]; 36 nM in test [14]; 21 nM in test [15] (setting [17]); 4.5 nM in test [16]. For the same compound, the minimal inhibitory concentration (MIC) is 2 µg/mL in test [6]; 32 µg/mL in [7]; above 32 µg/mL in test [8]; 4 µg/mL in [9]; above 32 µg/mL in [10].

`O=C1N2CC(n3cc(N4CCNCC4)cn3)=CC(C2)N1OS(=O)(=O)O` (stereo not drawn) [Example 42, 2,2,2-trifluoroacetate [7-oxo-3-(4-piperazin-4-ium-1-ylpyrazol-1-yl)-1,6-diazabicyclo[3.2.1]oct-3-en-6-yl]hydrogen sulfate]: the IC50 was 34 nM in [1]; 76 nM in test [2]; 0.31 nM in test [3]; 9.1 nM in [4]; 1600 nM in test [5]; 180 nM in test [11]. Moreover, the concentration for half-maximal inhibition (IC50) was found to be 0.47 nM in test [12]; 850 nM in test [13]; 86 nM in [14]; 59 nM in [15] (setting [17]); 1.5 nM in test [16]. The minimum inhibitory concentration (MIC) was 4 µg/mL in test [6]; above 32 µg/mL in test [7]; above 32 µg/mL in test [8]; 16 µg/mL in test [9]; above 32 µg/mL in [10].

Take `[2H]c1nn(C2=CC3CN(C2)C(=O)N3OS(=O)(=O)[O-])c([2H])c1[2H].[Na+]` (stereo not drawn) [Example 43, sodium [7-oxo-3-(3,4,5-trideuteriopyrazol-1-yl)-1,6-diazabicyclo[3.2.1]oct-3-en-6-yl]sulfate]: the half-maximal inhibitory concentration (IC50) came to 140 nM in [1]; 29 nM in test [2]; 0.85 nM in test [3]; 6 nM in test [4]; 98 nM in test [5]; 9.4 nM in test [11]. For the same compound, the IC50 in test [12] came to 0.87 nM; in [13] it was 39 nM; in [14] it was 12 nM; in [15], 6.4 nM; in test [16] it was 3.6 nM. Also, the MIC in test [6] was 1 µg/mL; in test [7] it was above 32 µg/mL; in test [8], 8 µg/mL; in [9], 4 µg/mL; in test [10], 8 µg/mL.
